Data as given in patent publication US20160194358A1, “LINEAR PEPTIDE ANTIBIOTCS” (priority 2013, published 2016).
≈ marks a conversion by molar mass, not a printed value. Like-named read-outs stand apart in the source and are kept apart here. Where a SMILES comes first, the peptide text is derived from it. [ ]: non-standard residue; d: D form. The star is where a group is joined. boroAla((+)-pinanediol) = C[C@H](N*)B1O[C@@H]2C[C@@H]3C[C@@H](C3(C)C)[C@]2(C)O1; Benzoyl(4-(4-Cl-Ph)) = O=C(c1ccc(-c2ccc(Cl)cc2)cc1)*; Ethanesulfonyl(2-NHDecyl) = CCCCCCCCCCNCCS(=O)(=O)*; Propanoyl(3-decylamino) = CCCCCCCCCCNCCC(=O)*; X34 = CCCCc1ccc(-c2ccc(S(=O)(=O)*)cc2)cc1; X30 = CCCCc1ccc(-c2ncc(C(=O)*)cn2)cc1; X33 = CC(C)(O)C#CC#Cc1ccc(C(=O)*)cc1; AlaCOCOOMe = COC(=O)C(=O)[C@H](C)N*; X35 = O=C(c1cnc(-c2ccc(Cl)cc2)nc1)*; X23 = O=C(c1ccc(C#CC#CCCO)cc1)*; X22 = C[C@H](N*)C(=O)C(=O)O; X37 = C[C@H](N*)B1OCCNCCO1; X17 = CCCCCCCCCNCCCC(=O)*; boroAla = C[C@H](N*)B(O)O; Dab = NCC[C@H](N)C(=O)O; X24 = CCCCCCCCNCCC(=O)*; Dap = NC[C@H](N)C(=O)O

How the values were obtained:
[1] = system: methicillin resistant Staphylococcus aureus (MRSA) strain USA300 (NRS384)
Description: (§1) In vitro antimicrobial activity of each compound was determined by measuring minimal inhibitor concentrations (MICs) using the broth micro-dilution technique as approved by the Clinical and Laboratory Standards Institute (CLSI). Antibacterial activity was measure against two strains of bacteria: 1) methicillin resistant Staphylococcus aureus (MRSA) strain USA300 (NRS384) and 2) Escherichia coli strain MC4100 IMP-4213, which harbors an LptD mutation. Bacterial inocula were prepared by scraping cells into 1 mL of testing media (cation adjusted Mueller Hinton Broth supplemented with 0.002% v/v Tween-80) and diluting to a final OD600nm of 0.01.
(§2) Test compounds were prepared in DMSO at a concentration of 10 mg/ml. These compound stocks were diluted into testing media at a concentration of 64 μg/ml and 9 serial 1:2 dilutions were made in the same media, in 96-well U bottom microtiter dishes. Bacterial inocula were added to the two fold serial dilutions of test compounds to a final density of OD OD600nm of 0.0005 and incubated stationarily at 35° C. for 22 hours, after which the plates were examined visually.

[2] = system: Escherichia coli strain MC4100 IMP-4213, which harbors an LptD mutation; conditions: E. coli MC4100 IMP-4213; 35° C., 22 hours
Description: as §1, §2

[3] = MRSA USA300 (NRS384), 35° C., 22 hours

| SMILES | MIC (μg/mL) S. aureus ([1]; USA300, 22 h) | MIC (μg/mL) E. coli [2] | MIC (μg/mL) S. aureus [1, 3] |
| --- | --- | --- | --- |
| CCCCCCCCCCNCCC(=O)N[C@@H](CCCCN)C(=O)N[C@H](C(=O)N[C@@H](C)C(=O)N[C@@H](CN)C(=O)N[C@@H](C)C(=O)C(=O)OC)[C@@H](C)O [Compound 256] ({Propanoyl(3-decylamino)}-KTA[Dap]-AlaCOCOOMe) | 10 µg/mL (≈ 13.7 µM) | >64 µg/mL |  |
| COC(=O)C(=O)[C@H](C)NC(=O)[C@H](CCCCN)NC(=O)[C@H](C)NC(=O)[C@@H](NC(=O)[C@H](CCN)NC(=O)c1ccc(-c2ccc(Cl)cc2)cc1)[C@@H](C)O [Compound 246] ({Benzoyl(4-(4-Cl-Ph))}-[Dab]TAK-AlaCOCOOMe) |  | >64 µg/mL | 2.3 µg/mL (≈ 3.08 µM) |
| CCCCCCCCCCNCCC(=O)N[C@@H](CCN)C(=O)N[C@H](C(=O)N[C@@H](C)C(=O)N[C@@H](CCCCN)C(=O)N[C@@H](C)B(O)O)[C@@H](C)O [Compound 219] ({Propanoyl(3-decylamino)}-[Dab]TAK-boroAla) | 1 µg/mL (≈ 1.43 µM) | 16 µg/mL (≈ 22.8 µM) |  |
| CCCCCCCCCCNCCC(=O)N[C@@H](CCCCN)C(=O)N[C@H](C(=O)N[C@@H](C)C(=O)N[C@@H](CCCCN)C(=O)N[C@@H](C)B(O)O)[C@@H](C)O [Compound 218] ({Propanoyl(3-decylamino)}-KTAK-boroAla) | 2.1 µg/mL (≈ 2.88 µM) | >64 µg/mL |  |
| CCCCc1ccc(-c2ncc(C(=O)N[C@@H](CCN)C(=O)N[C@H](C(=O)N[C@@H](C)C(=O)N[C@@H](CCCCN)C(=O)N[C@@H](C)B3O[C@@H]4C[C@@H]5C[C@@H](C5(C)C)[C@]4(C)O3)[C@@H](C)O)cn2)cc1 [Compound 270] (X30-[Dab]TAK-{boroAla((+)-pinanediol)}) |  | 0.25 µg/mL (≈ 0.29 µM) | 0.25 µg/mL (≈ 0.29 µM) |
| CCCCCCCCCCNCCC(=O)N[C@@H](CCCCN)C(=O)N[C@H](C(=O)N[C@@H](C)C(=O)N[C@@H](Cc1cnc[nH]1)C(=O)N[C@@H](C)B1O[C@@H]2C[C@@H]3C[C@@H](C3(C)C)[C@]2(C)O1)[C@@H](C)O [Compound 225] ({Propanoyl(3-decylamino)}-KTAH-{boroAla((+)-pinanediol)}) |  | 16 µg/mL (≈ 18.3 µM) | 2 µg/mL (≈ 2.29 µM) |
| CCCCc1ccc(-c2ccc(S(=O)(=O)N[C@@H](CCCCN)C(=O)N[C@H](C(=O)N[C@@H](C)C(=O)N[C@@H](CCCCN)C(=O)N[C@@H](C)B3O[C@@H]4C[C@@H]5C[C@@H](C5(C)C)[C@]4(C)O3)[C@@H](C)O)cc2)cc1 [Compound 236] (X34-KTAK-{boroAla((+)-pinanediol)}) |  | 16 µg/mL (≈ 17.3 µM) | 0.5 µg/mL (≈ 0.541 µM) |
| CCCCCCCCCCNCCS(=O)(=O)N[C@@H](CCCCN)C(=O)N[C@H](C(=O)N[C@@H](C)C(=O)N[C@@H](CCCCN)C(=O)N[C@@H](C)C(=O)C(=O)O)[C@@H](C)O [Compound 251] ({Ethanesulfonyl(2-NHDecyl)}-KTAK-X22) | 0.5 µg/mL (≈ 0.63 µM) | >64 µg/mL |  |
| C[C@H](NC(=O)[C@H](CCCCN)NC(=O)[C@H](C)NC(=O)[C@@H](NC(=O)[C@H](CCN)NC(=O)c1ccc(C#CC#CC(C)(C)O)cc1)[C@@H](C)O)B1O[C@@H]2C[C@@H]3C[C@@H](C3(C)C)[C@]2(C)O1 [Compound 264] (X33-[Dab]TAK-{boroAla((+)-pinanediol)}) |  | 4 µg/mL (≈ 4.8 µM) | 8 µg/mL (≈ 9.59 µM) |
| CCCCCCCCCCNCCS(=O)(=O)N[C@@H](CCCCN)C(=O)N[C@H](C(=O)N[C@@H](C)C(=O)N[C@@H](CCCCN)C(=O)N[C@@H](C)B1O[C@@H]2C[C@@H]3C[C@@H](C3(C)C)[C@]2(C)O1)[C@@H](C)O [Compound 237] ({Ethanesulfonyl(2-NHDecyl)}-KTAK-{boroAla((+)-pinanediol)}) |  | 32 µg/mL (≈ 35.6 µM) | 0.35 µg/mL (≈ 0.389 µM) |
| CCCCCCCCCCNCCC(=O)N[C@@H](CCCCN)C(=O)N[C@H](C(=O)N[C@@H](C)C(=O)N[C@@H](CCN)C(=O)N[C@@H](C)C(=O)C(=O)O)[C@@H](C)O [Compound 255] ({Propanoyl(3-decylamino)}-KTA[Dab]-X22) | 11 µg/mL (≈ 15.1 µM) | >64 µg/mL |  |
| CCCCCCCCCCNCCC(=O)N[C@@H](CCCCN)C(=O)N[C@H](C(=O)N[C@@H](C)C(=O)N[C@@H](CCN)C(=O)N[C@@H](C)C(=O)C(=O)OC)[C@@H](C)O [Compound 254] ({Propanoyl(3-decylamino)}-KTA[Dab]-AlaCOCOOMe) | 16 µg/mL (≈ 21.5 µM) |  |  |
| C[C@H](NC(=O)[C@H](CCCCN)NC(=O)[C@H](C)NC(=O)[C@@H](NC(=O)[C@H](CCN)NC(=O)c1ccc(-c2ccc(Cl)cc2)cc1)[C@@H](C)O)B1O[C@@H]2C[C@@H]3C[C@@H](C3(C)C)[C@]2(C)O1 [Compound 112] ({Benzoyl(4-(4-Cl-Ph))}-[Dab]TAK-{boroAla((+)-pinanediol)}) | 1 µg/mL (≈ 1.19 µM) | 64 µg/mL (≈ 76.3 µM) |  |
| CCCCCCCCCNCCCC(=O)N[C@@H](CCCCN)C(=O)N[C@H](C(=O)N[C@@H](C)C(=O)N[C@@H](CCCCN)C(=O)N[C@@H](C)B1O[C@@H]2C[C@@H]3C[C@@H](C3(C)C)[C@]2(C)O1)[C@@H](C)O [Compound 227] (X17-KTAK-{boroAla((+)-pinanediol)}) | 2 µg/mL (≈ 2.32 µM) | 64 µg/mL (≈ 74.2 µM) |  |
| CCCCCCCCNCCC(=O)N[C@@H](CCCCN)C(=O)N[C@H](C(=O)N[C@@H](C)C(=O)N[C@@H](CCCCN)C(=O)N[C@@H](C)B1O[C@@H]2C[C@@H]3C[C@@H](C3(C)C)[C@]2(C)O1)[C@@H](C)O [Compound 226] (X24-KTAK-{boroAla((+)-pinanediol)}) |  | >64 µg/mL | 6.3 µg/mL (≈ 7.55 µM) |
| C[C@H](NC(=O)[C@H](CCCCN)NC(=O)[C@H](C)NC(=O)[C@@H](NC(=O)[C@H](CCN)NC(=O)c1ccc(C#CC#CCCO)cc1)[C@@H](C)O)B1O[C@@H]2C[C@@H]3C[C@@H](C3(C)C)[C@]2(C)O1 [Compound 265] (X23-[Dab]TAK-{boroAla((+)-pinanediol)}) |  | 16 µg/mL (≈ 19.5 µM) | 16 µg/mL (≈ 19.5 µM) |
| CCCCCCCCCCNCCC(=O)N[C@@H](CCCCN)C(=O)N[C@H](C(=O)N[C@@H](C)C(=O)N[C@@H](CC(N)=O)C(=O)N[C@@H](C)B(O)O)[C@@H](C)O [Compound 221] ({Propanoyl(3-decylamino)}-KTAN-boroAla) | 4 µg/mL (≈ 5.6 µM) | 64 µg/mL (≈ 89.5 µM) |  |
| C[C@H](NC(=O)[C@H](CCCCN)NC(=O)[C@H](C)NC(=O)[C@@H](NC(=O)[C@H](CCN)NC(=O)c1cnc(-c2ccc(Cl)cc2)nc1)[C@@H](C)O)B1O[C@@H]2C[C@@H]3C[C@@H](C3(C)C)[C@]2(C)O1 [Compound 261] (X35-[Dab]TAK-{boroAla((+)-pinanediol)}) |  | 4 µg/mL (≈ 4.76 µM) | 1.7 µg/mL (≈ 2.02 µM) |
| C[C@H](NC(=O)[C@H](CCCCN)NC(=O)[C@H](C)NC(=O)[C@@H](NC(=O)[C@H](CCN)NC(=O)c1ccc(-c2ccc(Cl)cc2)cc1)[C@@H](C)O)B1OCCNCCO1 [Compound 131] ({Benzoyl(4-(4-Cl-Ph))}-[Dab]TAK-X37) |  |  | 1 µg/mL (≈ 1.29 µM) |
